{"source": "ChEMBL document CHEMBL3351388", "about": "“Identification of two novel RET kinase inhibitors through MCR-based drug discovery: design, synthesis and evaluation” (Eur J Med Chem, 2014)", "data": [{"target": "Proto-oncogene tyrosine-protein kinase receptor Ret (Homo sapiens, UniProt P07949)", "sequence (P07949 whole entry)": "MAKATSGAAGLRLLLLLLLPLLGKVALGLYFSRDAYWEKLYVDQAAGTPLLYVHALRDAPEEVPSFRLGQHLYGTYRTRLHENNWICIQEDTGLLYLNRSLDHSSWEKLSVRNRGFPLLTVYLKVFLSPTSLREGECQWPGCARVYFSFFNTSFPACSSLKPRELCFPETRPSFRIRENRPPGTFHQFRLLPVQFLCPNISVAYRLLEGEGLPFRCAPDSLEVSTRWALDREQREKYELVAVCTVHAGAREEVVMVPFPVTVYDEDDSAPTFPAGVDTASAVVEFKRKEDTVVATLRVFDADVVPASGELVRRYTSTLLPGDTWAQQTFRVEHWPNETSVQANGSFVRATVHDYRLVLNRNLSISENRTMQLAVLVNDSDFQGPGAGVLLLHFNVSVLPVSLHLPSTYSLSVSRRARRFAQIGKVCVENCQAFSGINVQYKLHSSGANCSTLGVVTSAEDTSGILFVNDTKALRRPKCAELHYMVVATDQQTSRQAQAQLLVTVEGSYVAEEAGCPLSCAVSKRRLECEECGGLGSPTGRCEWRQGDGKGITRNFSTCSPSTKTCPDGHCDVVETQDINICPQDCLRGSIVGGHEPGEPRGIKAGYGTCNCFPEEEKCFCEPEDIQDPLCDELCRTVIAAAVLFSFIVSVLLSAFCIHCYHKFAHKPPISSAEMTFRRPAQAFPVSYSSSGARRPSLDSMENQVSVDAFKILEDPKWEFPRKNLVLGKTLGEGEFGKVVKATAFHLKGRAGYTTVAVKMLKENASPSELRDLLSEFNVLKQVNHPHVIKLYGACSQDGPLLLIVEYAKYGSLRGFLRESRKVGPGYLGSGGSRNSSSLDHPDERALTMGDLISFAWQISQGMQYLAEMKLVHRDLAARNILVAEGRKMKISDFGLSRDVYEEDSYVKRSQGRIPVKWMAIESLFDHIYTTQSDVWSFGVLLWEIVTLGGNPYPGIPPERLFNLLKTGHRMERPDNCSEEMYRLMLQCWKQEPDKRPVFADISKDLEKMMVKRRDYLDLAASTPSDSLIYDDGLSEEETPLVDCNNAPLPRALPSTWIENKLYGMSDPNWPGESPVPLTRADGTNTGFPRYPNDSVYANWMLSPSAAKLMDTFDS", "assay": "Inhibition of RET (unknown origin) pre-incubated for 60 mins before substrate addition in presence of 9 uM ATP by microfluidic assay", "units": {"IC50": "µM"}, "values": [{"smiles": "O=C(Cc1ccc(-c2ccc3nccn3c2)cc1)Nc1cccc(Br)c1", "IC50": "> 100"}, {"smiles": "Cc1cccc(NC(=O)Cc2ccc(-c3ccc4nccn4c3)cc2)c1", "IC50": "> 100"}, {"smiles": "O=C(Cc1ccc(-c2ccc3nccn3c2)cc1)Nc1cccc(F)c1", "IC50": "> 100"}]}]}
